Experimental data: the METLIN SMRT retention time set (Domingo-Almenara et al. 2019)

test: gradient 5% acetonitrile 3 min, to 50% in 2 min, to 85% in 15 min, held 3 min, 100 µL/min; settings: column: Zorbax Extend-C18 2.1 x 50 mm; eluents: water / acetonitrile, 0.1% formic acid
Method in brief: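 A Zorbax Extend-C18 column (2.1 × 50 mm, 1.8 μm) run at 100 μL/min with water and acetonitrile, both containing 0.1% formic acid, separated mixtures of ~100 pure standards. The HPLC was coupled to a quadrupole time-of-flight mass spectrometer operated in positive and negative ionization mode, with dead and dwell volumes of 40 μL and 900 μL. Each retention time was taken from a computationally picked adduct peak that was then manually inspected.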

SMILES | RP-LC retention time [s]
COc1ccc(Nc2nc(N3CCN(CCO)CC3)nc3c2C(=O)CCC3)cc1 | 637
CCS(=O)(=O)c1nc2ccc(NS(=O)(=O)c3cc(C)c(C)cc3C)cc2s1 | 972
Fc1ccc(-c2noc(-c3nc(-c4ccncc4)no3)n2)cc1F | 1040
COc1ccc(-c2nc3cnccn3c2Nc2ccc(C(=O)NCCN(C)C)cc2)cc1OC | 576
Cc1nn(C(=O)c2cccnc2)c(C)c1Sc1ccccc1[N+](=O)[O-] | 916
CCn1nc(-c2ccccc2)c(-c2ccccc2)c(C(=O)OC)c1=O | 973
COc1ccc(NC(=O)N2CCC3(CC2)Nc2ccccc2-n2cccc23)c(OC)c1 | 1000
O=C(Cn1c(C(=O)c2cccc(F)c2)nc2ccccc21)NCC1CCCO1 (configuration not stated) | 805
Cc1ccc(-c2csc(-n3nc(C)c(CC(=O)NCc4ccccc4)c3C)n2)cc1 | 1160
COC(=O)c1ccccc1Nc1c(-c2ccc3c(c2)OCO3)nc2cnccn12 | 932
Cc1ccc(C2CCCN2C(=O)Nc2ccc3c(c2)OCCO3)cc1 (configuration not stated) | 922
O=c1ccn(-c2ccc(Cl)cc2)nc1-c1nc(-c2ccccc2)no1 | 938
O=C(CN1C(=O)NC2(CCCCC2)C1=O)Nc1cccc(Cl)c1 | 815
CN(CCc1noc(-c2ccc(C(=O)N3CCCCC3)cc2)n1)C(=O)c1ccc2c(c1)OCO2 | 779
CCCNC(=O)C1CCCN(c2ccc(SCC(=O)Nc3ccc(C)cc3)nn2)C1 (configuration not stated) | 686
CCC1CN2C=Nc3oc(C)c(C(=O)Nc4ccc(F)c(Cl)c4)c3C2=N1 (configuration not stated) | 704
COc1ccc(S(=O)(=O)Nc2cc(N3CCCS3(=O)=O)ccc2OC)cc1F | 721
COc1ccc(-n2ccn(CC(=O)Nc3ccc(Br)cc3)c(=O)c2=O)cc1 | 728
O=C(NCCc1c[nH]c2ccccc12)C1COc2ccccc2O1 (configuration not stated) | 866
O=C(Cn1c(=O)oc2ccc(Cl)cc21)NC1CCCCC1 | 878
O=C(Cc1csc(SCC(=O)c2cccs2)n1)NCCc1c[nH]c2ccccc12 | 806
Cc1nc(Nc2ccc(F)cn2)sc1C(=O)NC(C)c1ccccc1 (configuration not stated) | 861
COc1cc(OC)cc(-c2nc(-c3ccc4c(c3)oc(=O)n4C(C)C)no2)c1 | 1080
CC1Oc2ccccc2N(CC(=O)N2CCCN(c3cc(=O)n(C(C)C)c(=O)n3C(C)C)CC2)C1=O (configuration not stated) | 845
COc1ccc(OC)c(NC(=O)C2CCCN(c3ncnc4c3nc3n4CCCCC3)C2)c1 (configuration not stated) | 815
O=C(Cn1cccc(-c2nc(-c3ccc(F)cc3)no2)c1=O)Nc1ccc(Cl)cc1 | 950

SMILES | RP-LC retention time [s]
O=C(NCc1cccs1)C1CCN(Cc2cc3ccccc3n2Cc2ccc(F)cc2)CC1 | 783
Cc1cc(Cl)ccc1NC(=O)C1CCCN(c2ncnc3c2nc2n3CCCCC2)C1 (configuration not stated) | 879
CC(=O)N1CCN(c2nc(CC(C)C)c3c(c2C#N)CC(C)(C)OC3)CC1 | 1060
O=C(Nc1cccc(F)c1)C1CCN(S(=O)(=O)c2cc(-c3noc(C4CCC4)n3)cs2)CC1 | 1110
COc1ccc(-c2noc(C3CCCN3C(=O)Nc3cc(C)ccc3OC)n2)cc1 (configuration not stated) | 859
CC(C)NC(=O)C1CCCN(c2nc3ncn(CC(=O)Nc4ccccc4)c(=O)c3s2)C1 (configuration not stated) | 686
O=C(NCc1cccc(Cl)c1)C1CCN(c2cnc(N3CCCC3)nc2)CC1 | 690
Fc1ccc(N2CCN(c3nnc(SCc4cccnc4)s3)CC2)cc1 | 633
Cc1ccc(F)cc1NC(=O)Cn1cnc2nc(N3CCC(C(=O)NC4CC4)CC3)sc2c1=O | 674
COCC(C)(O)CNC(=O)COc1ccccc1OC (configuration not stated) | 608
Cc1ccc(C(=O)N2CCc3cc(CNC(=O)c4ccnn4C)ccc32)cc1 | 821
CCCn1cc(C(=O)Nc2cc(OC)ccc2OC)c(=O)c2ccc(C)nc21 | 1090
Cc1ccc(NC(=O)c2c(O)c3cccnc3n(-c3ccc(F)cc3)c2=O)c(F)c1 | 1330
COc1cc(C(C)=O)ccc1OCC(O)CN1CCN(c2ccccc2F)CC1 (configuration not stated) | 652
Cc1cc(C)c(S(=O)(=O)N2CC(=O)N(CC3CC3)C3(CCOCC3)C2)c(C)c1 | 944
CSc1ccc(NC(=O)N2CCC(c3nc(C(=O)N4CCCCC4)c(C)o3)CC2)cc1 | 840
CN(CC1CCOC1)C(=O)c1cc(F)ccc1Cl (configuration not stated) | 704
CCN(CC)C(=O)c1ccc(-c2nc3cc(NS(=O)(=O)c4cc(C)ccc4C)ccc3n2C)cc1 | 739
COCc1nc(NCc2ccc3c(c2)OCO3)ncc1C(=O)O | 673
Cc1noc2nc(CCC(=O)NCc3ccc(F)cc3Cl)nc(N3CCOCC3)c12 | 666
COc1ccc(S(=O)(=O)N2CC3CN(C(=O)C4CCOC4)CC(C2)O3)cc1 (configuration not stated) | 659
Cc1nn(CCCC(=O)NCCN(C)C)c(=O)c2c(-n3cccc3)n(-c3ccccc3)nc12 | 664
Cc1c(C(=O)NC2CCCCC2)cnn1-c1cc(-c2nc(C3CC3)no2)ccn1 | 1060
Cn1c(C2CCN(C(=O)c3ccsc3)C2)nc2cccnc21 (configuration not stated) | 606
CN(C)c1ncncc1N1CCC(C(=O)N2CCN(c3ccccc3F)CC2)CC1 | 650
Cc1cc(=O)c(OCc2ccccc2F)cn1CC(=O)NCc1ccco1 | 593

Results, then the compound that gave them:

RP-LC retention time [s] | SMILES
646 | O=C(C1CCN(c2cnc(N3CCOCC3)nc2)CC1)N1CCCCC1
788 | O=C(NC1CC1)c1nc(C(=O)N2CCN(c3ccc(F)cc3)CC2)cs1
681 | COc1cccc(N2CCN(C(=O)c3cc(NC(=O)C(C)C)cc4nc(C)ccc34)CC2)c1
624 | O=C(O)c1cc(-c2c[nH]c3ccccc23)nc2ccccc12
700 | CC1(C(=O)NC2CCCC2)CC(c2ccccc2)=NO1 (configuration not stated)
915 | CCOC(=O)c1cc([N+](=O)[O-])sc1NC(=O)CC
551 | COc1ccccc1NC(=O)N1CCC(c2nc3ccncc3n2C(C)C)C1 (configuration not stated)
823 | Cc1ccc(N2CCN(C(=O)c3cn4nc(Cl)ccc4n3)CC2)cc1
577 | CCCN1CCN(C(=O)Cn2nc(C)c3sc(CC)nc3c2=O)CC1
1040 | CC(C)Cc1ccc([C@H](C)C(=O)O)cc1
990 | Cc1nc(-c2cn(C)c3ncccc23)sc1C(=O)NCc1ccc(F)cc1Cl
806 | Fc1ccc(CN2CCc3nc(N4CCN(c5ccccc5F)CC4)ncc3C2)cc1F
780 | COc1cc2c(cc1CNC(=O)c1cccs1)OCCCO2
1080 | CC(C)OC(=O)Cn1nc(-c2nc(-c3ccc(Cl)cc3)no2)ccc1=O
952 | COc1cccc(-c2noc(Cn3c(=O)n(-c4ccc(F)cc4)c(=O)c4sccc43)n2)c1
1040 | O=c1c2oc3ccccc3c2ncn1Cc1nc(-c2cccc(C(F)(F)F)c2)no1
611 | NC(=O)C1CCN(C2CC(=O)N(c3ccc(Cl)c(Cl)c3)C2=O)CC1 (configuration not stated)
720 | CCCn1cnc2cc(CNC(=O)c3cc4cc(Cl)ccc4[nH]3)ccc21

RP-LC retention time [s] | SMILES
645 | CCc1ccc(NC(=O)Cn2c(=O)n(-c3cccc(C)c3)c(=O)c3c2cc(C)n3C)cc1
961 | Cc1ccccc1NC(=O)Cn1cnc2c(sc3nc(-c4ccccc4)ccc32)c1=O
1060 | CCn1cc(-c2nc(C(=O)Nc3cccc(C(=O)OC)c3)cs2)c2cccnc21
1080 | Cc1ccc(-c2cc3c4nnc(SCC(=O)Nc5ccc(Cl)cc5)n4ccn3n2)cc1C
1080 | CC(C)CC(=O)N1CCN(c2nc3ccccc3n(CC(C)C)c2=O)CC1
1200 | C=Cc1ccc(Cn2nc(-c3nc(-c4ccc(F)cc4)no3)ccc2=O)cc1
773 | CC(C)C(=O)Nc1nnc(SCc2nnc(-c3ccc4c(c3)OCO4)o2)s1
929 | Cc1cc(-c2nnc(-c3ccco3)o2)c(C)n1CC(=O)Nc1cc(F)cc(F)c1
620 | CC1CCCCN1CCNC(=O)c1nnc(-c2ccc(S(=O)(=O)N(C)C)cc2)o1 (configuration not stated)
602 | COC[C@@H]1CN(Cc2ccccn2)C[C@H]1c1nc(C2CC2)no1
626 | O=C(CCC[C@@H]1[C@H]2CCCN3CCC[C@@H](CN1C(=O)COc1ccc(Cl)cc1)[C@@H]23)N1CCOCC1
639 | Cc1nn(-c2cc(N3CCCCC3)ncn2)c(C)c1CCC(=O)N1CCN(c2ccccn2)CC1
683 | CCN(CC)CCNC(=O)c1nnc(-c2oc3c(C)cccc3c2C)o1
780 | Cc1ccc(CNC(=O)C2(C)Cn3cnc(C(=O)NCc4ccccc4F)c3C(=O)N2C2CC2)cc1 (configuration not stated)
657 | COCCN(Cc1ccc(Cl)cc1)Cc1cc(=O)n2ccc(C)cc2n1
1020 | COc1ccc(OC)c(NC(=O)c2[nH]c(C)c(S(=O)(=O)N3CCCCC3)c2C)c1
683 | COc1ccc(CNc2c(-c3nc(C4CC4)no3)cnc3nc(C)ccc23)cc1OC
